In paper PMC6321291, “Synthesis, Biological Evaluation and Docking Studies of Benzoxazoles Derived from Thymoquinone” (Molecules, 2018):
≈ marks a conversion by molar mass, not a printed value. Like-named read-outs stand apart in the source and are kept apart here.

Experiments:
[1] = tested on: CFPAC-1 (ductal pancreatic adenocarcinoma); assay: MTT assay, CFPAC-1; type: cell-based; conditions: Homo sapiens, 72 h
Description: (§1) The tested compounds were dissolved in DMSO in five, 10-fold dilutions (0.01–100 µM). The cell lines HeLa (cervical carcinoma), SW620 (colorectal adenocarcinoma, metastatic), HepG2 (hepatocellular carcinoma), CFPAC-1 (ductal pancreatic adenocarcinoma), and WI38 (human lung fibroblast cell line), were cultured as monolayers and maintained in Dulbecco’s modified Eagle medium (DMEM) supplemented with 10% fetal bovine serum (FBS), 2 mM L-glutamine, 100 U mL^−1 penicillin and 100 μg mL^−1 streptomycin in a humidified atmosphere with 5% CO2 at 37 °C.
(§2) The MTT assay was used for evaluation of effects of tested compounds on viability of carcinoma and control cell lines. About 5000 cells per well were seeded onto a series of standard 96-well plates on day 0. Test agents were then added and incubated for further 72 h. Working dilutions of tested compounds were freshly prepared in the growth medium, on the day of testing. The solvent (DMSO) was also tested for eventual inhibitory activity by adjusting its concentration to be the same as in the working concentrations (DMSO concentration never exceeded 0.1%). After 72 h of incubation, the cell growth rate was evaluated by performing the MTT assay: experimentally determined absorbance values were transformed into a cell percentage growth (PG) using the formulas proposed by NIH and described previously. This method directly relies on control cells number at the day of assay because it compares the growth of treated cells with the growth of untreated cells in control wells on the same plate, the results are therefore a percentile difference from the calculated expected value.
(§3) If, however, all of the tested concentrations produce PGs exceeding the respective reference level of effect (e.g., PG value of 50) for a given cell line, the highest tested concentration is assigned as the default value (in the screening data report that default value is preceded by a “>” sign). Each test point was performed in quadruplicate in three individual experiments. The results were statistically analyzed (Analysis of variance (ANOVA), Tukey post-hoc test at p < 0.05). Finally, the effects of the tested substances were evaluated by plotting the mean percentage growth for each cell type in comparison to control on dose response graphs.

[2] = tested on: Aspergillus brasiliensis ATCC 16404; assay: Micro-dilution MIC assay, A. brasiliensis; type: cell-based; conditions: A. braziliensis, 48 h at 25 °C
Description: (§4) Antimicrobial activity of compounds was evaluated in vitro on eight bacterial strains (Escherichia coli ATCC 25922 (ATCC = American Type Culture Collection, Manassas, VA, USA), Pseudomonas aeruginosa ATCC 9027, Proteus hauseri ATCC 13315, Klebsiella pneumoniae ATCC 10031, Staphylococcus aureus ATCC 6538, Bacillus subtilis ATCC 6633, Clostridium sporogenes ATCC 19404 and Micrococcus luteus ATCC 10240) and three fungi (Candida albicans ATCC 10231, Saccharomyces cerevisiae ATCC 9763 and Aspergillus brasiliensis ATCC 16404).
(§5) Micro-dilution assay was used for determination of tested compounds MIC. A serial dilution method in sterile 96-well microtitre plates was performed. Fresh Mueller–Hinton broth (for bacteria) and Sabouraud dextrose broth (for fungi) were used. In sterile physiological solution, suspensions containing 1.5 × 10^8 CFU mL^−1 for bacteria and 1.5 × 10^7 CFU mL^−1 for fungi were made (according to McFarland). One hundred microliters of broth were added to each well of the plate. Stock solutions of tested compounds were made in DMSO at concentration 10 mg mL^−1, and then 100 μL of the compound stock solution was added to each well of the first column. Double dilution was made in whole row for one tested compound, and repeated for all tested compounds in other rows. Amikacin served as positive control for bacteria, while nystatin served as positive control for fungi. The solvent (DMSO) was used as the negative control. Afterwards, each well was inoculated with 10 μL of microorganism suspension. After incubation, 24 h at 37 °C for bacteria and 48 h at 25 °C for fungi, results were read. The lowest concentration where no growth of microorganism was detected represented MIC.

[3] = tested on: Clostridium sporogenes ATCC 19404; assay: Micro-dilution MIC assay, C. sporogenes; type: cell-based; conditions: ATCC19404, 24 h at 37 °C
Description: as §4, §5

[4] = tested on: Candida albicans ATCC 10231; assay: Micro-dilution MIC assay, C. albicans; type: cell-based
Description: as §4, §5

[5] = tested on: Klebsiella pneumoniae ATCC 10031; assay: Micro-dilution MIC assay, K. pneumoniae; type: cell-based; conditions: ATCC10031, 24 h at 37 °C
Description: as §4, §5

[6] = tested on: Bacillus subtilis ATCC 6633; assay: Micro-dilution MIC assay, B. subtilis; type: cell-based; conditions: ATCC6633, 24 h at 37 °C
Description: as §4, §5

[7] = MTT assay, WI38 healthy control; type: cell-based; conditions: WI38 human lung fibroblast cells, WI38 healthy control human fibroblast cell line
Description: as §1, §2, §3

[8] = tested on: HepG2 (hepatocellular carcinoma); assay: MTT assay, HepG2; type: cell-based; conditions: Homo sapiens, 72 h
Description: as §1, §2, §3

[9] = tested on: SW620 (colorectal adenocarcinoma, metastatic); assay: MTT assay, SW620; type: cell-based; conditions: Homo sapiens, SW-620, 72 h
Description: as §1, §2, §3

[10] = tested on: Escherichia coli ATCC 25922; assay: Micro-dilution MIC assay, E. coli; type: cell-based; conditions: ATCC25922, 24 h at 37 °C
Description: as §4, §5

[11] = tested on: Pseudomonas aeruginosa ATCC 9027; assay: Micro-dilution MIC assay, P. aeruginosa; type: cell-based; conditions: ATCC9027, 24 h at 37 °C
Description: as §4, §5

[12] = tested on: HeLa (cervical carcinoma); assay: MTT assay, HeLa; type: cell-based; conditions: Homo sapiens, 72 h
Description: as §1, §2, §3

[13] = tested on: Proteus hauseri ATCC 13315; assay: Micro-dilution MIC assay, P. hauseri; type: cell-based; conditions: ATCC13315, 24 h at 37 °C
Description: as §4, §5

[14] = tested on: Micrococcus luteus ATCC 10240; assay: Micro-dilution MIC assay, M. luteus; type: cell-based; conditions: ATCC10240, 24 h at 37 °C
Description: as §4, §5

[15] = tested on: Saccharomyces cerevisiae ATCC 9763; assay: Micro-dilution MIC assay, S. cerevisiae; type: cell-based
Description: as §4, §5

[16] = tested on: Staphylococcus aureus ATCC 6538; assay: Micro-dilution MIC assay, S. aureus; type: cell-based; conditions: ATCC6538, 24 h at 37 °C
Description: as §4, §5

[17] = tested on: phospho (Ser 473) Akt; assay: Western blot, pAkt in HepG2 cells; type: cell-based, human; conditions: IC50 concentration, 24 h and 48 h
Description: (§6) Protein lysates were lysed in the buffer 50 mM Tris HCl (pH 8), 150 mM NaCl, 1% NP-40, 0.5% sodium deoxycholate, 0.1% SDS and protease and phosphatase inhibitor cocktail (Roche, Basel, Switzerland). A total of 50 μg of proteins were resolved on 10% SDS polyacrylamide gels by use of Mini-protean cell (Bio-Rad, Hercules, CA, USA). Membranes were incubated with primary antibodies against phospho (Tyr 1135) -IGF1 Receptor β (1:1000, rabbit mAb, Cell Signalling Technology, Danvers, MA, USA), phospho (Ser 473) Akt (1:1000, rabbit mAb, Cell Signalling Technology) and α tubulin (1:1000, mouse mAb, Sigma Aldrich) at 4 °C overnight. Secondary antibody linked to anti-mouse was used at 1:1000 (Dako, Santa Clara, CA, USA) and to anti-rabbit at 1:1000 (Dako). Signals were visualized by Western Lightening Chemiluminescence Reagent Plus Kit (Perkin Elmer, USA) on the ImageQuant LAS500 (GE Healthcare, Chicago, IL, USA). Signal intensities of particular bands were normalized with the intensity of the loading control α tubulin and compared in Quantity One software (Bio-Rad). The values are expressed as average value of three independent experiments ± standard error of the mean. Statistical analysis was performed in Microsoft Excel (Microsoft Corporation, Redmond, WA, USA) by using the ANOVA (p < 0.05).

[18] = tested on: phospho (Tyr 1135) -IGF1 Receptor β; assay: Western blot, IGF1 Receptor β activated form in HepG2 cells; type: cell-based, human; conditions: IC50 concentration, 24 and 48 h treatments
Description: as §6

[19] = tested on: phospho (Ser 473) Akt; assay: Western blot, pAkt in HeLa cells; type: cell-based, human; conditions: IC50 concentration, 24 h and 48 h
Description: as §6

[20] = tested on: phospho (Tyr 1135) -IGF1 Receptor β; assay: Western blot, IGF1 Receptor β activated form in HeLa cells; type: cell-based, human; conditions: IC50 concentration, 24 and 48 h treatments
Description: as §6

[21] = Aspergillus brasiliensis, ATCC16404, read-out: MIC
[22] = Candida albicans, ATCC10231, 48 h at 25 °C, read-out: MIC
[23] = Saccharomyces cerevisiae, ATCC9763, 48 h at 25 °C, read-out: MIC

Compound	IC50 [1] [µM]	IC50 at 72 h [7] [µM]	IC50 [8] [µM]	IC50 [9] [µM]	IC50 [12] [µM]	melting point [°C]	also measured
CC1=C(N)C(=O)C(C(C)C)=CC1=O [ATQ, 3-Aminothymoquinone]	30.9	9.41	8.26	25.8	15.7	–	MIC [2, 21]: 880 µM (≈ 158 µg/mL); MIC [3]: 435 µM (≈ 78 µg/mL); MIC [4, 22]: 1750 µM (≈ 314 µg/mL); MIC [5]: 435 µM (≈ 78 µg/mL); MIC [6]: 218 µM (≈ 39 µg/mL); MIC [10]: 112 µM (≈ 20 µg/mL); MIC [11]: 218 µM (≈ 39 µg/mL); MIC [13]: 218 µM (≈ 39 µg/mL); MIC [14]: 59.7 µM (≈ 10.7 µg/mL); MIC [15, 23]: 220 µM (≈ 39.4 µg/mL); MIC [16]: 112 µM (≈ 20 µg/mL)
Cc1c(O)cc(C(C)C)c2oc(-c3ccc(Br)cc3)nc12 [1d, 2-(4-Bromophenyl)-4-methyl-7-isopropyl-1,3-benzoxazole-5-ol]	34.5	57.6	30.5	51.5	30.1	190	–
C[C@@H]1[C@H](O)[C@@H](C)/C=C/C=C/CC/C=C/C=C/C=C/C=C/C(O[C@H]2O[C@H](C)[C@@H](O)[C@H](N)[C@@H]2O)CC2O[C@](O)(CC(O)C(O)CCC(O)CC(O)CC(O)CC(=O)O[C@H]1C)CC(O)C2C(=O)O (stereo partly shown) [Nystatin, nystatin]	–	–	–	–	–	–	MIC [2]: 1350 µM (≈ 1250 µg/mL); MIC ([4]; 48 h at 25 °C): 2700 µM (≈ 2500 µg/mL); MIC ([15]; 48 h at 25 °C): 1350 µM (≈ 1250 µg/mL)
Cc1c(O)cc(C(C)C)c2oc(-c3ccc(Cl)cc3)nc12 [1e, 2-(4-Chlorophenyl)-4-methyl-7-isopropyl-1,3-benzoxazole-5-ol]	49.5	> 100	39.5	79.9	42.7	–	inhibition of Akt phosphorylation (western blot) [17]: weak, time and concentration dependent inhibition; IGF1 Receptor β activated form expression (western blot) [18]: no significant changes; inhibition of Akt phosphorylation (western blot) [19]: weak, time and concentration dependent inhibition; IGF1 Receptor β activated form expression (western blot) [20]: no significant changes
CC1=CC(=O)C(C(C)C)=CC1=O [TQ, Thymoquinone]	48.3	19.8	24	40	28.9	–	MIC [2, 21]: 3810 µM (≈ 626 µg/mL); MIC [3]: 122 µM (≈ 20 µg/mL); MIC [4, 22]: 3810 µM (≈ 626 µg/mL); MIC [5]: 59.7 µM (≈ 9.8 µg/mL); MIC [6]: 59.7 µM (≈ 9.8 µg/mL); MIC [10]: 29.8 µM (≈ 4.9 µg/mL); MIC [11]: 59.7 µM (≈ 9.8 µg/mL); MIC [13]: 29.8 µM (≈ 4.9 µg/mL); MIC [14]: 59.7 µM (≈ 9.8 µg/mL); MIC [15, 23]: 1900 µM (≈ 312 µg/mL); MIC [16]: 29.8 µM (≈ 4.9 µg/mL)
COc1ccc(-c2nc3c(C)c(O)cc(C(C)C)c3o2)cc1 [1h, 2-(4-Methoxyphenyl)-4-methyl-7-isopropyl-1,3-benzoxazole-5-ol]	97	75.9	> 100	> 100	> 100	178	–
NCC[C@H](O)C(=O)N[C@@H]1C[C@H](N)[C@@H](O[C@H]2O[C@H](CN)[C@@H](O)[C@H](O)[C@H]2O)[C@H](O)[C@H]1O[C@H]1O[C@H](CO)[C@@H](O)[C@H](N)[C@H]1O [Amikacin, amikacin]	–	–	–	–	–	–	MIC [3]: 25.6 µM (≈ 15 µg/mL); MIC [5]: 13.7 µM (≈ 8.03 µg/mL); MIC [6]: 71.7 µM (≈ 42 µg/mL); MIC [10]: 8.54 µM (≈ 5 µg/mL); MIC [11]: 85.4 µM (≈ 50 µg/mL); MIC [13]: 11.9 µM (≈ 7 µg/mL); MIC [14]: 3.42 µM (≈ 2 µg/mL); MIC [16]: 18.8 µM (≈ 11 µg/mL)
Cc1c(O)cc(C(C)C)c2oc(-c3ccccc3O)nc12 [1b, 2-(2-Hydroxyphenyl)-4-methyl-7-isopropyl-1,3-benzoxazole-5-ol]	31	29.8	32.3	43.7	25	172	–
Cc1c(O)cc(C(C)C)c2oc(-c3ccccc3)nc12 [1a, 4-Methyl-2-phenyl-7-isopropyl-1,3-benzoxazole-5-ol]	90.2	19.9	39.3	> 100	32.2	164	–
COc1cc(-c2nc3c(C)c(O)cc(C(C)C)c3o2)ccc1O [1i, 2-(4-Hydroxy-3-methoxyphenyl)-4-methyl-7-isopropyl-1,3-benzoxazole-5-ol]	40.6	9.32	4.58	55.3	6.38	168	–
Cc1c(O)cc(C(C)C)c2oc(-c3ccc([N+](=O)[O-])cc3)nc12 [1g, 4-Methyl-2-(4-nitrophenyl)-7-isopropyl-1,3-benzoxazole-5-ol]	> 100	6.21	> 100	54.9	> 100	188	–
Cc1c(O)cc(C(C)C)c2oc(-c3cccs3)nc12 [1j, 4-Methyl-7-isopropyl-2-(thiophene-2-yl)-1,3-benzoxazole-5-ol]	27	9.97	7.28	31.6	10.3	152	–
